{
  "source": "patent US4929445A",
  "about": "“Method for inhibiting Listeria monocytogenes using a bacteriocin” (Microlife Technics, Inc., priority 1988, dated 1990)",
  "key": {"Listeria monocytogenes [1]": {"tested_on": "Listeria monocytogenes", "test": "Activity of PA-1 against Listeria monocytogenes in half and half cream", "format": "cell-based", "conditions": "half and half cream pH 6.7, 4° C., LM 4.3 × 10^3 cells per ml, PA-1 50 U/ml", "protocol": "Listeria monocytogenes was added to the cream (pH 6.7) at a rate of 4.3×10^3 cfu/ml of cream. The bacteriocin powder PA-1 was added to the cream at a rate of 10 or 50 U/ml cream. The samples were mixed and incubated at 4° C. and aliquots were removed and examined for growth of Listeria monocytogenes ."}, "Listeria monocytogenes [2]": {"tested_on": "Listeria monocytogenes", "test": "Effect of PA-1 powder on an exponential culture (turbidity at 660 nm)", "format": "cell-based", "conditions": "200 U/ml and 500 U/ml added after 3.75 hours, APT broth, 32° C.", "protocol": "The PA-1 powder was added to a L. monocytogenes culture at 200 U(units)/ml or 500 U/ml and turbidity (which is an indicator of the number of cells) was monitored over time at 660 nanometers. The symbols used are , control (no PA-1 added); .circle., 200 U/ml PA-1; .quadrature., 500 U/ml PA-1.\nSterile PA-1 bacteriocin powder was added to an exponential culture of Listeria monocytogenes at a rate of 200 U/ml of broth and 500 U/ml of broth. Listeria monocytogenes was grown in APT broth at 32° C. Absorbance was followed over time at 660 nm."}, "[3]": {"conditions": "cited from earlier work"}, "[4]": {"tested_on": "Pediococcus pentosaceus FBB63C", "test": "MIC and MBC by two-fold broth dilution", "format": "cell-based", "conditions": "APT broth, 24 hours at 32° C."}, "[5]": {"tested_on": "Listeria monocytogenes LM01", "test": "MIC and MBC by two-fold broth dilution", "format": "cell-based", "conditions": "APT broth, 24 hours at 32° C.", "protocol": "Bacteriocin PA-1 powder was dissolved in APT broth and two-fold serially diluted to concentrations ranging from 1000 U/ml to 2.0 U/ml. Approximately 1×10^3 Listeria monocytogenes/ml were added to each of the tubes which then were incubated for 24 hours at 32° C. The MIC value was the lowest concentration tube displaying no visible turbidity."}, "[6]": {"tested_on": "Lactococcus, Streptococcus, Staphylococcus, Micrococcus and Lactobacillus strains", "conditions": "Lactococcus lactis, L. lactis subsp. diacetylactis, L. cremoris, Streptococcus thermophilus, Staphylococcus aureus, xylosus, epidermidis, carnosus, Micrococcus varians, sodonensis, Lactobacillus acidophilus, bulgaricus; cited from earlier work"}, "Listeria monocytogenes [7]": {"tested_on": "Listeria monocytogenes", "test": "Activity of PA-1 against Listeria monocytogenes in dressed Cottage cheese", "format": "cell-based", "protocol": "Listeria monocytogenes was added to dressed Cottage cheese (pH 5.1) at a rate of 6.5×10^3 cfu/gram of dressed Cottage cheese. The bacteriocin powder to Example 1 (PA-1) was added to the Cottage cheese at a rate of 10 or 50 U (units)/g dressed Cottage cheese. The samples were mixed and incubated at 4° C. and aliquots were removed and plated onto McBride's Agar (Difco, Detroit, Mich.) and incubated at 32° C. and examined for growth of Listeria monocytogenes."}, "Listeria monocytogenes [8]": {"tested_on": "Listeria monocytogenes", "test": "Activity of PA-1 against Listeria monocytogenes in cheese sauce", "format": "cell-based", "conditions": "cheese sauce pH 5.25, 4° C., LM 5.3 × 10^3 cells per gram", "protocol": "Listeria monocytogenes was added to the cheese sauce (pH 5.25) at a rate of 5.3×10^3 cfu/g of cheese sauce. The bacteriocin powder PA-1 was added to the cheese sauce at a rate of 10 or 50 U/g of sauce. The samples were mixed and incubated at 4° C. and aliquots were removed and examined for growth of Listeria monocytogenes."}},
  "data": [
    {"substance": "PA-1: bacteriocin of about 16,500 daltons produced by Pediococcus acidilactici NRRL-B-18050 (PAC 1.0); tested as lyophilized culture supernatant powder with nonfat dry milk", "values": [
      {"measurement": "Growth of Listeria at 24 h", "setting": "Listeria monocytogenes [1]", "value": 0, "unit": "cfu/g"},
      {"measurement": "Effect on exponential culture, absorbance at 660 nm", "setting": "Listeria monocytogenes [2]", "value": "not only inhibitory but also bacteriocidal"},
      {"measurement": "Effect of heating on the bacteriocin", "setting": "[3]; heating to 100° C. in water", "value": "unaffected"},
      {"measurement": "Effect of proteolytic enzymes on the bacteriocin", "setting": "[3]; in vitro mixing with protease, papain or alpha-chymotrypsin", "value": "inactivated"},
      {"measurement": "Effect of other enzymes on the bacteriocin", "setting": "[3]; phospholipase C, lysozyme, Dnase and RNase", "value": "unaffected"},
      {"measurement": "MBC", "setting": "[4]; no CFU on APT agar", "value": 31.3, "unit": "U/ml"},
      {"measurement": "MIC", "setting": "[4]; no visible turbidity", "value": 7.8, "unit": "U/ml"},
      {"measurement": "MBC", "setting": "[5]; no CFU on APT agar", "value": 7.8, "unit": "U/ml"},
      {"measurement": "MIC", "setting": "[5]; about 1×10^3 cells/ml, no visible turbidity", "value": "< 2.0", "unit": "U/ml"},
      {"measurement": "Inhibitory activity against other gram positive bacteria", "setting": "[6]", "value": "No activity was found"},
      {"measurement": "Growth of Listeria at 24 h", "setting": "Listeria monocytogenes [7]; dressed Cottage cheese pH 5.1, 4° C., LM 6.5 × 10^3 cells per gram, PA-1 10 U/g", "value": 0, "unit": "cfu/g"},
      {"measurement": "Growth of Listeria at 24 h", "setting": "Listeria monocytogenes [7]; dressed Cottage cheese pH 5.1, 4° C., LM 6.5 × 10^3 cells per gram, PA-1 50 U/g", "value": 0, "unit": "cfu/g"},
      {"measurement": "Growth of Listeria at 24 h", "setting": "Listeria monocytogenes [7]; dressed Cottage cheese, 4° C., no LM added, PA-1 50 U/g", "value": 0, "unit": "cfu/g"},
      {"measurement": "Growth of Listeria at 24 h", "setting": "Listeria monocytogenes [8]; PA-1 10 U/g", "value": "4.0 × 10^2 cfu/g"},
      {"measurement": "Growth of Listeria at 24 h", "setting": "Listeria monocytogenes [8]; PA-1 50 U/g", "value": 0, "unit": "cfu/g"}
    ]}
  ]
}
